Peptide text beside a SMILES is read from it.
How the values were obtained:
human thrombin = human thrombin (Homo sapiens, UniProt P00734)
Method: (§1) The thrombin-sensitive peptide, […] (TSP), was custom synthesized by standard Fmoc synthesis (WatsonBio, Houston, TX, USA). The susceptibility of the peptide to the bacterial thrombin-like enzyme was assessed by exposing the peptide to media from an actively growing S. aureus culture. Enzymatic activity of the media was initially determined by titrating culture exudate into a fluorogenic thrombin substrate, Boc-Val-Pro-Arg-MCA (Sigma Aldrich, St. Louis, MO, USA). TSP was then exposed to the media with varying enzymatic activity and incubated at 37 °C with shaking. The sample was analyzed with HPLC (mobile phase 0.1% TFA/water (A) 0.1% TFA/Acetonitrile (B), under a gradient flow of 5–90% at a flow rate of 1.0 mL/min) every 12 h through 48 h. Protein was detected at a wavelength of 215 nm. A similar experiment was conducted with the recombinant spider silk to check the susceptibility of the silk protein to the bacterial enzyme.
(§2) The susceptibility of the TSP to the bacterial thrombin-like enzyme was assessed by exposing the peptide to media from an actively growing S. aureus culture. Enzymatic activity of the bacterial culture was determined by a fluorogenic thrombin substrate, Boc-Val-Pro-Arg-MCA. TSP was initially titrated into media with varying enzymatic activity to determine the amount of enzyme required to cleave the peptide.

[1] = water control, HPLC
Method: as §1, §2

[2] = system: bacterial thrombin-like enzyme (media from an actively growing S. aureus culture); assay: Susceptibility to spent S. aureus culture media (HPLC); conditions: for degradation of silk protein in S. aureus bacterial media: 48 h, different concentrations of spent bacterial media vs control without media, 37 °C, HPLC area under the curve
Method: as §1

[3] = Exposure to human serum (HPLC); assay type: in vitro ADME
Text: Frequent and inappropriate usage of antibiotics has changed the natural evolution of bacteria by reducing susceptibility and increasing resistance towards antibacterial agents. New resistance mechanisms evolved in the response to host defenses and pharmaceutical interventions are threatening our ability to treat common infections, resulting in increased mortality. In the face of this rising epidemic, antibiotic drug discovery, which has long been overlooked by big pharma, is reaching a critical low. Thus, the development of an infection-responsive drug delivery system, which may mitigate multidrug resistance and preserve the lifetime of our current antibiotic arsenal, has garnered the attention of both popular science and funding agencies. The present work describes the development of a thrombin-sensitive linker embedded into a recombinant spider silk copolymer to create a nanosphere drug delivery vehicle. […] A thrombin sensitive peptide (TSP) was synthesized, and the thrombin cleavage sensitivity was determined by HPLC. […] Subsequently, the peptide was coupled with a silk copolymer via EDC-NHS chemistry and formulated into nanospheres encapsulating antibiotic vancomycin. These nanospheres were evaluated for in vitro infection-responsive drug release and antimicrobial activity. Finally, the drug responsive nanospheres were assessed for efficacy in an in vivo septic arthritis model. […]

thrombin = conditions: releasing gentamicin linked to a polyvinyl alcohol (PVA) support matrix; cited from earlier work
Text: Strategies utilizing microenvironments unique to tissues and disease states as a molecular cue to activate drug release has gained widespread attention in the treatment of various diseases like cancer, diabetes, and bacterial infections as it increases drug stability and therapeutic efficacy while decreasing toxic side effects at the same time. Several enzymes including a thrombin-like enzyme in S. aureus, myeloperoxidase in Candida, and esterases in uropathogens were reported to be elevated during infection, whereas virulence factors for certain bacteria like b ...

[4] = system: S. aureus infected knee joint; assay: In vivo septic arthritis model, H&E histopathology of knee joint; design: species or system Sprague Dawley rats; conditions: H&E staining, 48 h after local treatment
Method: After establishing the septic arthritis disease model, treatment with either free drug, drug-loaded conjugate particles, or drug-loaded silk particles was given on day two after bacterial inoculation. Rats were divided into three treatment groups (Table 1). The first group received drug-loaded (14 mg/kg) conjugate nanoparticles in the infected knee locally delivered into the synovial joint space while the uninfected knee was injected with unloaded conjugate nanoparticles. The second group received drug-loaded plain silk SX2 particles into the infected knee while the uninfected knee was injected with unloaded SX2 particles. The third group received a free drug into the infected knee joint and sterile PBS into the uninfected knee. The treatment was continued for 48 h after which rats were euthanized and limbs were collected for histopathological analysis. Before euthanasia, synovial fluid was collected from the joint space of the infected knee and the control knee of all the groups and cultured on LB agar plates overnight. After incubation overnight, the number of colonies were counted.
Histopathology was performed on the infected and uninfected bones by hematoxylin and eosin (H and E) stain. Initially the bones were harvested from the rat after euthanasia and fixed in 10% neutral buffered formalin for 72 h. […]

S. aureus = conditions: standard ZOI values of the free drug for SA; ref not given; cited from earlier work
Method: To explore the potential efficacy of this delivery system for the treatment of S. aureus septic arthritis, the antibacterial effect of Vancomycin-loaded nanospheres was first tested in vitro on Staphylococcus aureus. […] Once the MIC was established, antibacterial activity was tested by a Kirby Bauer Zone of Inhibition assay.

[5] = Critical aggregation concentration by pyrene fluorescence; assay type: physicochemical; conditions: pyrene fluorescence I1/I3 (379/393 nm), phosphate buffer, sonicated 5 min, incubated 1 h
Method: The critical aggregation concentration (CAC) of silk was determined by the pyrene fluorescence method. Briefly, 20 µL of 24 µg/mL (working concentration) of a pyrene solution was prepared in acetone and acetone was evaporated. Later, 980 µL of silk peptide in the phosphate buffer at different concentrations was then added to the pyrene, and the mixture was sonicated for 5 min and incubated for 1 h. The fluorescence spectra of the samples were recorded at an excitation of 336 nm and emission of 360–450 nm wavelengths. Intensity peaks at 379 nm (I1) and 393 nm (I3) were recorded. The ratio of I1/I3 was plotted against log concentration, and the point where a sharp inclination in the graph was noted as the CAC.

C[C@H](NC(=O)[C@@H]1CCCN1C(=O)[C@H](Cc1ccccc1)NC(=O)CNC(=O)[C@H](CCCNC(=N)N)NC(=O)[C@@H]1CCCN1C(=O)[C@H](CC(=O)O)NC(=O)[C@H](Cc1ccccc1)NC(=O)CNC(=O)[C@H](CCCCN)NC(=O)[C@H](CC(=O)O)NC(=O)[C@H](CC(=O)O)NC(=O)[C@H](CC(=O)O)NC(=O)[C@H](CC(=O)O)NC(=O)[C@H](Cc1c[nH]cn1)NC(=O)[C@H](Cc1c[nH]cn1)NC(=O)[C@H](Cc1c[nH]cn1)NC(=O)[C@H](Cc1c[nH]cn1)NC(=O)[C@H](Cc1c[nH]cn1)NC(=O)[C@@H](N)Cc1c[nH]cn1)C(=O)NCC(=O)NCC(=O)O [TSP] (H-HHHHHHDDDDKGFDPRGFPAGG-OH)
degradation in human thrombin after 48 h (human thrombin): minimal degradation
stability to human thrombin (human thrombin): still intact
stability to human thrombin after 24 h (human thrombin): intact
stability in water after 24 h ([1]; 24 h exposure, n = 3): intact
stability in water ([1]; data not shown): still intact
cleavage on incubation with S. aureus exudate ([2]; S. aureus exudate, HPLC): cleaved
time to cleavage of the peptide in S. aureus bacterial media ([2]; media from actively growing S. aureus culture, enzymatic activity 23 a.u., 37 °C with shaking, HPLC 215 nm every 12 h through 48 h): ≤ 12 h
cleavage on exposure to human serum [3]: no cleavage

GFDPRGFPAGG
time to complete cleavage (thrombin): ≤ 15 min

CN[C@H](CC(C)C)C(=O)N[C@H]1C(=O)N[C@@H](CC(N)=O)C(=O)N[C@H]2C(=O)N[C@H]3C(=O)N[C@H](C(=O)N[C@H](C(=O)O)c4cc(O)cc(O)c4-c4cc3ccc4O)[C@H](O)c3ccc(c(Cl)c3)Oc3cc2cc(c3O[C@@H]2O[C@H](CO)[C@@H](O)[C@H](O)[C@H]2O[C@H]2C[C@](C)(N)[C@H](O)[C@H](C)O2)Oc2ccc(cc2Cl)[C@H]1O [vancomycin-free drug, vancomycin]
histopathological findings in infected joint [4]: similar, if not more inflamed, appearance
standard ZOI value (S. aureus): > 12 mm

(GGYGPGQQGPGGYGPGQQGPSGPGSAAAAAAAA)2 [silk, recombinant MaSp2 spider silk protein, two consensus repeats, six histidine tag and enterokinase site, expressed in E. coli]
degradation of silk protein in S. aureus bacterial media ([2]; listed as silk peptide): stability of the peptide even after 48 h
degradation of silk protein in S. aureus bacterial media ([2]; listed as silk protein): no significant difference in the degradation
critical aggregation concentration (CAC) [5]: 1.2 mg/mL

Source: PMC8467577, “Infection Responsive Smart Delivery of Antibiotics Using Recombinant Spider Silk Nanospheres” (Pharmaceutics, 2021)
